Test results taken from a melting point compilation (Tetko et al.; mined from patent text by program, amines drawn as free bases though some values may be those of a salt).

melting point [°C] | Compound
84 | COCCOCOc1ccc(-c2nnc(S)o2)cc1OCOCCOC
244 to 245 | NCC(C(=O)O)c1c[nH]c2ccc(F)cc12 (configuration not stated)
231 | COc1cc(/C=C/C(=O)c2ccc(C(=O)O)cc2)cc(-c2cccs2)c1OC
188 to 190 | COc1cc(C)c(C=CC(C)=CC=C(C)C(=O)O)c(C)c1C
230 | Cc1cccc(NC(=O)c2cc(=O)[nH]c3ccc(C(=O)c4ccc(Cl)cc4)cc23)c1
175 | O=C(Nc1ccccc1)C1=C(O)c2cccc(-c3ccccc3)c2OS1
152 to 153 | O=c1c(Cl)c(OCc2ccc(F)cc2F)ccn1Cc1ccc2[nH]ccc2c1
113 to 116 | CCCCCCCCn1nnc(C(C(=O)Nc2c(OC)cc(OC)cc2OC)c2ccccc2)n1 (configuration not stated)
59 to 61 | Cc1ccc(C(=O)CCc2ccc(N)cc2)cc1
205 to 207 | CS(=O)(=O)c1ccc(-c2nc(=O)c3ccccc3s2)cn1
128 to 129 | Cc1c(NC(=O)c2ccc(-c3ccccc3Cl)cc2)ccc2cc(CN3CCCC3)cnc12
140 to 142 | CCc1nn(CCC(N)=O)c(CC)c1Cc1cc(Cl)cc(Cl)c1
248 to 251 | COc1cc(Nc2c(C#N)cnc3cc(-c4ccc(C=O)cc4)ccc23)c(Cl)cc1Cl
105 | CCCC(=O)OCC1OC(n2cnc3c(OC)nc(N)nc32)C(O)C1O (configuration not stated)
90 | COC(=O)c1ccccc1NC(=O)N(C)CCO
74 to 76 | CSc1nccc(C(=O)C(=O)c2ccc(F)cc2)n1
211 to 214 | CCOCc1nc2c(N)nc3cc(-c4cccnc4)ccc3c2n1Cc1ccc(CN)cc1
172 to 174 | CON=Cc1cc(-n2c(=S)cc(C(F)(F)F)n(N)c2=O)c(F)cc1Cl
159 to 166 | NC(=CC(=O)C1CC1)c1ccncc1
277 to 281 | CCn1ccc(C(=O)c2sc(NC(=O)c3ccncc3)nc2-c2ccco2)cc1=O
193 to 194 | COc1ccccc1-c1n[nH]c2c(NCCO)cc(C)nc12
-6 | CCC1CCC(C2CCC(CC)CC2)CC1 (configuration not stated)
56 to 57 | OCc1ccc(OCc2ccccc2)c(F)c1
130 to 133 | COC(=O)Nc1cccc(OCC(O)CN(Cc2ccccc2)C(C)(C)C)c1O (configuration not stated)
98 to 101 | CC(C)(C)OC(=O)c1ccccc1-c1ccc(CBr)cc1

melting point [°C] | Compound
239 to 241 | COC12C=CC(CC1)C1=C2C(=O)c2c(O)ccc(O)c2C1=O (configuration not stated)
76 to 78 | Cc1nn(-c2c(Cl)cc(C(F)(F)F)cc2Cl)cc1C#C[Si](C)(C)C
172 to 173 | FC(F)(F)c1ccc(-c2cc(Oc3cccc4ccc(Cl)nc34)ncn2)cc1
93 to 95 | COc1cccc(CC(=S)SCC(=O)O)c1
86 to 88 | Cc1c(-c2ccncc2)oc2c1C(=O)CCC2(C)C
206 to 207 | Cc1ccc(-c2nc(C)cc(O)n2)cc1
118 to 120 | COc1ccc(OC)c(S(=O)(=O)Nc2onc(C)c2Br)c1
193 to 195 | O=C1C2=C(CCCC2)C(=O)N1c1ccc(Cl)c2c1CC(CO)O2 (configuration not stated)
184 to 187 | Cn1nc2c(oc3ccccc32)c1NC=O
115 to 119 | COc1ccc2c(c1)c(C(C)=NOC1CCCCO1)c(C)n2C(=O)c1ccc(Cl)cc1 (configuration not stated)
136 to 138 | c1ccc2c(c1)NC(C1CCCCC1)c1cccc3c1N2CC3 (configuration not stated)
107 to 108 | CCCCS(=O)(=O)c1cn(C)c2ccccc2c1=O
147 to 148 | COC(=O)c1ccc2c(OC)ccnc2c1
74 to 76 | COc1cc(Br)cc([N+](=O)[O-])c1OCc1ccccc1
192 to 194 | Cc1cccc(COc2cccc(OCc3cc(=O)c4ccccc4n3C)c2)c1OCC(=O)O
229 | CCOC(=O)c1nc2ccc(OC)cc2[nH]c1=O
112 | COc1ccc(CCc2ccc(C(=O)O)cc2)cc1OC(C)CCCc1ccccc1 (configuration not stated)
> 250 | Cc1c(C(N)=O)oc2c(C(=O)O)cccc2c1=O
191 to 204 | CC(=O)NC[C@H]1CN(c2ccc(N3CCN(c4ccc([N+](=O)[O-])o4)CC3)c(F)c2)C(=O)O1
205 to 207 | COc1ccc(Cl)cc1C1(F)C(=O)Nc2ccc(F)cc21 (configuration not stated)
203 to 204 | COc1c(O)cc2oc(-c3ccccc3)cc(=O)c2c1O
143 to 144 | COC(=O)CC1SC2=Nc3ccccc3CN2C1=O (configuration not stated)
118 to 120 | O=C(CCCCCCC(=O)N1CCN(CCc2ccc3ccccc3c2)CC1)NO
200 to 202 | CCNc1cc(-c2c[nH]c(N)n2)ccn1
152 to 155 | COc1ccc(OC)c(C(=O)C=Cc2cccc(C(=O)O)c2)c1

melting point [°C] | Compound
237 to 244 | CC(C)C1(C)N=C(c2nc3occc3cc2C(=O)O)NC1=O (configuration not stated)
185 to 188 | CC(=O)C1CCC2C3CCC4=CC(=O)CCC4(C)C3C(Cl)CC12C (configuration not stated)
251 to 252 | c1cc(-c2nc(-c3cnccn3)n[nH]2)ccn1
165 | CC(C)n1c(=O)n(C(=O)NCC2CCN(CC3(C(=O)O)CCCC3)CC2)c2ccccc21
144 to 145 | COc1ccc2nc(Cl)cc(C)c2c1
195 to 196 | O=C1CC(c2ccc(O)cc2)Oc2cc(O)c(C3OC(CO)C(O)C(O)C3O)c(O)c21 (configuration not stated)
166 to 171 | CC(=O)N(C)c1c(C(=O)c2cccc(C)c2)[nH]c2cc(Cl)ccc12
99 to 110 | COc1cc(OCc2ccccn2)ccc1/C=C/c1cc(/C=C/c2cccc3cc[nH]c23)n[nH]1
142 to 144 | CCCCN(Cc1ccc(-c2ccccc2-c2nnnn2C(c2ccccc2)(c2ccccc2)c2ccccc2)cc1)c1ncncc1C(=O)OCC
181 to 182 | COc1ccc(CCOc2cncc(-c3cccc(C(=O)O)c3)c2)cc1OC
175 to 177 | CC1(C)COC(=O)[C@H]1NC(=O)[C@@H](CC(=O)OCc1ccccc1)n1ccc(-c2ccc(-c3ccncc3)cc2)c1
212 to 213 | O=S(=O)(c1ccc(F)cc1)c1c[nH]c2ncccc12
129 to 131 | Clc1ccc(-c2nc(Cl)nc(Cl)c2-c2ccccc2)cc1
128 | COC(=O)c1ccc(C(=O)CC(=O)c2ccc3c(c2)C(C)(C)CCC3(C)C)cc1
85 to 86 | COc1ccc2cc([C@H](C)C(=O)OCC(=O)OC(C)(C)C)ccc2c1
108 to 112 | O=C(O)c1ccc(COc2cccc(-c3c(-c4ccccc4)cnc4c(C(F)(F)F)cccc34)c2)cc1
122 to 128 | CCOC(=O)c1cn(C)c2ccsc2c1=O
115 to 116 | O=C(N[C@@H](Cc1ccc2ccccc2c1)[C@H]1CO1)OCc1ccccc1
133 to 135 | CC(C)(C)OC(=O)c1nc2ccc(NCCCN3CCC(OC(c4ccccc4)c4ccccc4)CC3)nn2n1
225 to 228 | O=C(O)C1=Cc2cc(Cl)ccc2N(Cc2ccc([N+](=O)[O-])cc2)C1C(F)(F)F (configuration not stated)
134 to 135 | N#CCc1c[nH]c2ccc(CS(=O)(=O)Oc3ccccc3)cc12
69 to 71 | CC(C)C[C@@H](C(=O)O)N(C)C(=O)OCc1ccccc1
75 to 77 | CC12CCC3c4ccc(N)cc4CCC3C1CCC2O (configuration not stated)
107 | N#CC1CCc2ccc([N+](=O)[O-])cc2C(=O)C1 (configuration not stated)
205 to 207 | COc1cc2cnc3c(c2cc1OC)Cc1c-3cc2c(c1CN(C)C)OCO2

melting point [°C] | Compound
164 to 165 | Fc1ccc(C(F)(F)F)cc1Nc1nc2ccccc2o1
130 to 131 | CSc1c(Cl)ccc(C(=O)O)c1SC
114 to 116 | COc1cc(CCl)c(CCl)cc1OCc1ccccc1
66 | CON(C)C(=O)CN1CCC(CCN2CCN(c3cccc(C)c3C)CC2)CC1
132 to 133 | C=C[C@H]1CC(C(=O)OC)=C[C@@H](OC(C)C)[C@@H]1NC(C)=O
173 to 174 | COc1ccc2cc(CC(=O)O)ccc2c1
95 to 95.5 | CON(C)C(=O)Nc1ccc(OCCc2ccc(C)cc2C)cc1
159 to 161 | CC(CC(C)(C)O)=NO
198 to 199 | Cc1cccc(C(=O)Nc2nc(-c3ccccc3)c(-c3ccc(=O)n(C(C)C)n3)s2)c1
86 to 89 | COC1C(O)C(CO)OC1n1cnc2c(NC3CC=CCC3c3cccs3)ncnc21 (configuration not stated)
153 to 158 | CCOC(=O)c1ccc(NC(=O)C(COS(C)(=O)=O)NS(=O)(=O)c2ccc(Cl)cc2)cc1 (racemic)
308 to 310 | COC(=O)c1ccc2nnc(C(=O)NCc3ccc(Cl)cc3)c(O)c2c1
155 | COc1ccccc1Sc1c(Cl)nc(C)nc1NS(=O)(=O)c1ccc(C(C)(C)C)cc1
98 to 102 | COC(=O)c1ccc(OC)c(C=O)c1
192 | C#CCOc1cc(C(=O)O)cc(N)c1C(=O)c1ccccc1
172 to 173 | COC(=O)c1cc(F)c(N2CCN(C(C)=O)CC2)nc1Nc1ccc(F)cc1F
208 to 210 | Cc1cc(Cc2c(F)cc(N)cc2F)n(C)c1C(=O)c1ccc(Cl)cc1
162 to 165 | N#Cc1nc(Cl)ccc1N
170 | NS(=O)(=O)c1ccc(S(=O)(=O)CCCO)c(C(=O)O)c1
82.7 to 83.4 | Cc1ccc(C2=NCCc3c(Cl)cccc32)cc1
103 to 106 | O=Cc1ccc(OCCNc2nc3ccccc3o2)cc1
130 to 133 | CC(=O)OC1CCC2(C)C(CCC3C4CCC(C(C)=O)C4(C)CC(=O)C32)C1 (configuration not stated)
> 260 | CC(=O)Nc1nc(N)nc(-c2ccc(-c3ccccc3)cc2)n1

Compound | melting point [°C]
CCP1(=O)c2ccccc2CN1c1ccccc1 (configuration not stated) | 116 to 120
CN1CCC23CCCCC2C1Cc1ccc(Oc2nc(-c4ccccc4)nc4ccccc24)cc13 (single isomer, unassigned; (+)) | 138 to 139
CCOC(=O)C(Br)=CC1C(C(=O)OC(C#N)c2cccc(Oc3ccccc3)c2)C1(C)C (configuration not stated) | 69
OC1C2=C(CCN1CCCCc1c[nH]c3ccccc13)c1ccccc1C2 (configuration not stated) | 205 to 208
